What is called Ki is a measure of affinity in units of concentration, obtained from inhibition or displacement.

The source of these data is ChEMBL document CHEMBL1156471, “Targeting host cell furin proprotein convertases as a therapeutic strategy against bacterial toxins and viral pathogens” (J Biol Chem, 2007).

The target of the experiment is Furin (Homo sapiens, UniProt P09958).
Furin, sequence (P09958 whole entry): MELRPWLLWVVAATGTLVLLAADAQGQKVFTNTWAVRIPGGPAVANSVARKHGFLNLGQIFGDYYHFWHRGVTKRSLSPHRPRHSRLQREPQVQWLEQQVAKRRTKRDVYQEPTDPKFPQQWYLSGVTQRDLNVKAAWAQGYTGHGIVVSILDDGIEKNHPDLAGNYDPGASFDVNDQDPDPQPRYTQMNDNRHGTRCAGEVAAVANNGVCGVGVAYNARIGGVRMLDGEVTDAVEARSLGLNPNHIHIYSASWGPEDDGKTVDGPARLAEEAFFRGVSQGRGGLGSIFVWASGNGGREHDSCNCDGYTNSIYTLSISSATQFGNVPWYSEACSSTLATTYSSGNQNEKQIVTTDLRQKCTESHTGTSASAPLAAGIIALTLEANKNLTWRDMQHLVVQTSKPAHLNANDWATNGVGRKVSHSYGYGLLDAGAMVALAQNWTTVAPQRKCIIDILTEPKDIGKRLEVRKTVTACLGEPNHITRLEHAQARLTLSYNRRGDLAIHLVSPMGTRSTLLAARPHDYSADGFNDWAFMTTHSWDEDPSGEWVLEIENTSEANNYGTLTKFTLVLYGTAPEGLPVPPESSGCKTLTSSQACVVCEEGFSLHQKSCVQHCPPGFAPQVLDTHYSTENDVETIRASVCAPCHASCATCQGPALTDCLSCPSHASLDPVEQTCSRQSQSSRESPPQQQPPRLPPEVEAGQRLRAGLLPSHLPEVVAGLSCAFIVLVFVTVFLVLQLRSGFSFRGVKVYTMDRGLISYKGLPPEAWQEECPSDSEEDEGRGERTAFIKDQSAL

In the case of `C[C@@H](O)[C@H](N)C(=O)N1CCC[C@H]1C(=O)N[C@@H](CCCN=C(N)N)C(=O)N[C@@H](CCC(=O)O)C(=O)N[C@@H](CCCN=C(N)N)C(=O)N[C@@H](CCCN=C(N)N)C(=O)N[C@@H](CCCN=C(N)N)C(=O)N[C@@H](CCCCN)C(=O)N[C@@H](CCCCN)C(=O)N[C@@H](CCCNC(=N)N)C(=O)NCC(N)=O`, the Ki was over 100 nM.
Take `CSCC[C@H](NC(=O)[C@H](CCCN=C(N)N)NC(=O)[C@H](CCCCN)NC(=O)[C@H](CCCCN)NC(=O)[C@H](CCCN=C(N)N)NC(=O)[C@H](CCCN=C(N)N)NC(=O)[C@H](CCCN=C(N)N)NC(=O)[C@H](C)NC(=O)[C@H](CCCN=C(N)N)NC(=O)[C@@H]1CCCN1C(=O)[C@@H](N)[C@@H](C)O)C(N)=O`: the Ki is over 100 nM.
`C[C@@H](O)[C@H](N)C(=O)N1CCC[C@H]1C(=O)N[C@@H](CCCN=C(N)N)C(=O)N[C@@H](CCCCN)C(=O)N[C@@H](CCCN=C(N)N)C(=O)N[C@@H](CCCN=C(N)N)C(=O)N[C@@H](CCCN=C(N)N)C(=O)N[C@@H](CCCCN)C(=O)N[C@@H](CCCCN)C(=O)N[C@@H](CCCN=C(N)N)C(=O)NCC(N)=O`: the Ki is over 100 nM.
In turn, `CC(C)C[C@H](NC(=O)[C@H](CCCNC(=N)N)NC(=O)[C@H](CCCCN)NC(=O)[C@H](CCCCN)NC(=O)[C@H](CCCNC(=N)N)NC(=O)[C@H](CCCNC(=N)N)NC(=O)[C@H](CCCNC(=N)N)NC(=O)[C@H](C)NC(=O)[C@H](CCCNC(=N)N)NC(=O)[C@@H]1CCCN1C(=O)[C@@H](N)[C@@H](C)O)C(N)=O` displayed a Ki of over 100 nM.
As to `C[C@H](NC(=O)[C@H](CCCNC(=N)N)NC(=O)[C@@H]1CCCN1C(=O)[C@@H](N)[C@@H](C)O)C(=O)N[C@@H](CCCNC(=N)N)C(=O)N[C@@H](CCCNC(=N)N)C(=O)N[C@@H](CCCNC(=N)N)C(=O)N[C@@H](CCCCN)C(=O)N[C@@H](CCCCN)C(=O)N[C@@H](CCCNC(=N)N)C(=O)N[C@@H](CS)C(N)=O`, the Ki was over 100 nM.
In turn, `C[C@@H](O)[C@H](N)C(=O)N1CCC[C@H]1C(=O)N[C@@H](CCCNC(=N)N)C(=O)N[C@@H](CCCNC(N)=O)C(=O)N[C@@H](CCCNC(=N)N)C(=O)N[C@@H](CCCNC(=N)N)C(=O)N[C@@H](CCCNC(=N)N)C(=O)N[C@@H](CCCCN)C(=O)N[C@@H](CCCCN)C(=O)N[C@@H](CCCNC(=N)N)C(=O)NCC(N)=O` registered a Ki of over 100 nM.
Molecule `C[C@@H](O)[C@H](N)C(=O)N1CCC[C@H]1C(=O)N[C@@H](CCCN=C(N)N)C(=O)N[C@H](CCCCN)C(=O)N[C@@H](CCCN=C(N)N)C(=O)N[C@@H](CCCN=C(N)N)C(=O)N[C@@H](CCCN=C(N)N)C(=O)N[C@@H](CCCCN)C(=O)N[C@@H](CCCCN)C(=O)N[C@@H](CCCN=C(N)N)C(=O)NCC(N)=O` displayed a Ki of over 100 nM.
Molecule `C[C@@H](O)[C@H](N)C(=O)N1CCC[C@H]1C(=O)N[C@@H](CCCNC(=N)N)C(=O)NCCC(=O)N[C@@H](CCCNC(=N)N)C(=O)N[C@@H](CCCNC(=N)N)C(=O)N[C@@H](CCCNC(=N)N)C(=O)N[C@@H](CCCCN)C(=O)N[C@@H](CCCCN)C(=O)N[C@@H](CCCNC(=N)N)C(=O)NCC(N)=O` had an inhibition constant Ki of over 100 nM.
Under `C[C@@H](O)[C@H](N)C(=O)N1CCC[C@H]1C(=O)N[C@@H](CCCN=C(N)N)C(=O)NC1(C(=O)N[C@@H](CCCN=C(N)N)C(=O)N[C@@H](CCCN=C(N)N)C(=O)N[C@@H](CCCN=C(N)N)C(=O)N[C@@H](CCCCN)C(=O)N[C@@H](CCCCN)C(=O)N[C@@H](CCCN=C(N)N)C(=O)NCC(N)=O)CCCC1` stands over 100 nM; under `C[C@H](O)[C@H](N)C(=O)N1CCC[C@H]1C(=O)N[C@@H](CCCNC(=N)N)C(=O)N[C@H](CCC(=O)O)C(=O)N[C@@H](CCCNC(=N)N)C(=O)N[C@@H](CCCNC(=N)N)C(=O)N[C@@H](CCCNC(=N)N)C(=O)N[C@@H](CCCCN)C(=O)N[C@@H](CCCCN)C(=O)N[C@@H](CCCNC(=N)N)C(=O)NCC(N)=O`, over 100 nM; under `C[C@@H](O)[C@H](N)C(=O)N1CCC[C@H]1C(=O)N[C@@H](CCCNC(=N)N)C(=O)NCCCCCC(=O)N[C@@H](CCCNC(=N)N)C(=O)N[C@@H](CCCNC(=N)N)C(=O)N[C@@H](CCCNC(=N)N)C(=O)N[C@@H](CCCCN)C(=O)N[C@@H](CCCCN)C(=O)N[C@@H](CCCNC(=N)N)C(=O)NCC(N)=O`, over 100 nM.
